Assay results taken from ChEMBL document CHEMBL4400558, “Optimization of Blood-Brain Barrier Permeability with Potent and Selective Human Neuronal Nitric Oxide Synthase Inhibitors Having a 2-Aminopyridine Scaffold” (J Med Chem, 2019).

Biological target: Nitric oxide synthase 1 (Homo sapiens, UniProt P29475)
Sequence (P29475 whole entry): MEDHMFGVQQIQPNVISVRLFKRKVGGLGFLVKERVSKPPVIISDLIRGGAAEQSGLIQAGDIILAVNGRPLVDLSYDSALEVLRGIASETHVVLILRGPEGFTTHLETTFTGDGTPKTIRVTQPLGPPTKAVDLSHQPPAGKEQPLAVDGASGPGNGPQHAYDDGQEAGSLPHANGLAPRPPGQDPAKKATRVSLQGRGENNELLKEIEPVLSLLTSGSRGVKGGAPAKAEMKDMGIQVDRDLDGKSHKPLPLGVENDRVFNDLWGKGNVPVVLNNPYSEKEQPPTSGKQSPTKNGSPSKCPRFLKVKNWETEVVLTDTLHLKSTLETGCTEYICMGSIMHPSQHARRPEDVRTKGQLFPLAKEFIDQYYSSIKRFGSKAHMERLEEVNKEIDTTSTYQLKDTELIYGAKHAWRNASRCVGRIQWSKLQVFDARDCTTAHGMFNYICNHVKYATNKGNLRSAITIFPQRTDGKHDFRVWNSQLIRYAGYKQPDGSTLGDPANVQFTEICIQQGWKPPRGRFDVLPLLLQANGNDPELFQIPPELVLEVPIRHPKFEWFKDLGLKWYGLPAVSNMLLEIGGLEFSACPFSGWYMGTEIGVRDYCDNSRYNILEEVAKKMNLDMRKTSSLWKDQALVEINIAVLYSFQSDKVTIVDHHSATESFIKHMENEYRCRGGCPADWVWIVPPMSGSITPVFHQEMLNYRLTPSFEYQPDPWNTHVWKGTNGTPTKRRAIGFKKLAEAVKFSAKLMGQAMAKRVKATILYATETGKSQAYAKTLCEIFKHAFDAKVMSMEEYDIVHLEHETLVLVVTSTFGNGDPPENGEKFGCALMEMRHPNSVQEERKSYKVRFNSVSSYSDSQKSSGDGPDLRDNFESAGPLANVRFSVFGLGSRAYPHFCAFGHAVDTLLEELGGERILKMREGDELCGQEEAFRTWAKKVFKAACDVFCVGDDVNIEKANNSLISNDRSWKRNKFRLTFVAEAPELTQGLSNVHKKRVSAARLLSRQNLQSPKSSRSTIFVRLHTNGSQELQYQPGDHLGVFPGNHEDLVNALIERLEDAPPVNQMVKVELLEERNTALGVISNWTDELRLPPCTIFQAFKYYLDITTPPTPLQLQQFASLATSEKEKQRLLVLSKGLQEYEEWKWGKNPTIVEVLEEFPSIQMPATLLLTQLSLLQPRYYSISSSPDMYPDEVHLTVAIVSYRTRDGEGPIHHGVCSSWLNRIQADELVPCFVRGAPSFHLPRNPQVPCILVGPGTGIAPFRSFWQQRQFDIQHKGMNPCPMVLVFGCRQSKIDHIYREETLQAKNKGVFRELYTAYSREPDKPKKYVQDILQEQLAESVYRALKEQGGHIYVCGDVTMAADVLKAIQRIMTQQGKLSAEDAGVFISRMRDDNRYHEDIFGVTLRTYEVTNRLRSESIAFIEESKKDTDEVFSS

Ki: 29 nM
SMILES: Cc1cc(N)nc(CCc2cc(CCCN(C)C)cc(F)c2F)c1
